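Briefly, cells in 96-well plates were exposed to five compound concentrations for 48 h, and endpoints were estimated by linear interpolation. The concentration for 50% growth inhibition is given as GI50.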 Calls of active or inactive are those of the source. No stated cut-off is given here; in the data, active = GI50 up to about 1.1 µM and inactive = higher.
Key:
Assay in all cases: NCI-60 cell line screen, 48 h
KM12 = test system: KM12
RXF 393 = test system: RXF 393
M14 = test system: M14
OVCAR-4 = test system: OVCAR-4
COLO 205 = test system: COLO 205
SNB-75 = test system: SNB-75
OVCAR-3 = test system: OVCAR-3
SK-MEL-28 = test system: SK-MEL-28
NCI-H460 = test system: NCI-H460
CAKI-1 = test system: CAKI-1
ACHN = test system: ACHN
A498 = test system: A498
MDA-MB-435 = test system: MDA-MB-435
SR = test system: SR
MDA-MB-231 = test system: MDA-MB-231
786-0 = test system: 786-0
PC-3 = test system: PC-3
NCI/ADR-RES = test system: NCI/ADR-RES
IGROV-1 = test system: IGROV-1
SK-MEL-2 = test system: SK-MEL-2

Cn1cnc([N+](=O)[O-])c1Sc1nc(N)nc2c1ncn2[C@H]1C[C@H](O)[C@@H](CO)O1
GI50 (KM12): 2.77 µM (inactive) | GI50 (RXF 393): 8.32 µM (inactive) | GI50 (M14): 1.16 µM (inactive) | GI50 (OVCAR-4): 2.99 µM (inactive) | GI50 (COLO 205): 4.63 µM (inactive) | GI50 (SNB-75): 5.68 µM (inactive) | GI50 (OVCAR-3): 3.44 µM (inactive) | GI50 (SK-MEL-28): 14.5 µM (inactive) | GI50 (NCI-H460): 1.03 µM (active) | GI50 (CAKI-1): 4.05 µM (inactive) | GI50 (ACHN): 3.52 µM (inactive) | GI50 (A498): 5.42 µM (inactive) | GI50 (MDA-MB-435): 2.29 µM (inactive) | GI50 (SR): 1.07 µM (active) | GI50 (MDA-MB-231): 3.36 µM (inactive) | GI50 (786-0): 3.86 µM (inactive) | GI50 (PC-3): 6.84 µM (inactive) | GI50 (NCI/ADR-RES): 1.28 µM (inactive) | GI50 (IGROV-1): 5.13 µM (inactive) | GI50 (SK-MEL-2): 2.45 µM (inactive)

O=Cc1ccc(-c2ccc(-c3ccc(C=O)s3)o2)s1
GI50 (KM12): > 100 µM (inactive) | GI50 (RXF 393): 0.233 µM (active) | GI50 (M14): > 100 µM (inactive) | GI50 (OVCAR-4): 2.79 µM (inactive) | GI50 (COLO 205): 18.7 µM (inactive) | GI50 (SNB-75): 29.7 µM (inactive) | GI50 (OVCAR-3): 1.44 µM (inactive) | GI50 (SK-MEL-28): 98.4 µM (inactive) | GI50 (NCI-H460): 1.91 µM (inactive) | GI50 (CAKI-1): 0.418 µM (active) | GI50 (ACHN): > 100 µM (inactive) | GI50 (A498): 0.284 µM (active) | GI50 (MDA-MB-435): 71.4 µM (inactive) | GI50 (SR): > 40.8 µM (inactive) | GI50 (MDA-MB-231): > 100 µM (inactive) | GI50 (786-0): 23.8 µM (inactive) | GI50 (PC-3): > 100 µM (inactive) | GI50 (NCI/ADR-RES): 61.5 µM (inactive) | GI50 (IGROV-1): 3.27 µM (inactive) | GI50 (SK-MEL-2): > 90.6 µM (inactive)

O=C1c2cccc([N+](=O)[O-])c2C(=O)N1Cc1ccccc1
GI50 (KM12): > 100 µM (inactive) | GI50 (RXF 393): > 100 µM (inactive) | GI50 (M14): > 100 µM (inactive) | GI50 (OVCAR-4): > 100 µM (inactive) | GI50 (COLO 205): > 100 µM (inactive) | GI50 (SNB-75): > 100 µM (inactive) | GI50 (OVCAR-3): > 100 µM (inactive) | GI50 (SK-MEL-28): > 100 µM (inactive) | GI50 (NCI-H460): > 100 µM (inactive) | GI50 (CAKI-1): > 100 µM (inactive) | GI50 (ACHN): > 100 µM (inactive) | GI50 (A498): > 100 µM (inactive) | GI50 (MDA-MB-435): > 100 µM (inactive) | GI50 (SR): > 100 µM (inactive) | GI50 (MDA-MB-231): > 100 µM (inactive) | GI50 (786-0): > 100 µM (inactive) | GI50 (PC-3): > 100 µM (inactive) | GI50 (NCI/ADR-RES): > 100 µM (inactive) | GI50 (IGROV-1): > 100 µM (inactive) | GI50 (SK-MEL-2): > 100 µM (inactive)

O=C1c2ccccc2C2(c3ccc(Cl)cc3)NCc3ccccc3CN12 (stereo not given)
GI50 (KM12): 21.9 µM (inactive) | GI50 (RXF 393): 16.1 µM (inactive) | GI50 (M14): 18 µM (inactive) | GI50 (OVCAR-4): 23.7 µM (inactive) | GI50 (COLO 205): 15.1 µM (inactive) | GI50 (SNB-75): 52.8 µM (inactive) | GI50 (OVCAR-3): 13.4 µM (inactive) | GI50 (SK-MEL-28): 25.2 µM (inactive) | GI50 (NCI-H460): 27.9 µM (inactive) | GI50 (CAKI-1): 63 µM (inactive) | GI50 (ACHN): 21.6 µM (inactive) | GI50 (A498): 19.4 µM (inactive) | GI50 (MDA-MB-435): 26.7 µM (inactive) | GI50 (SR): 24.7 µM (inactive) | GI50 (MDA-MB-231): 57.4 µM (inactive) | GI50 (786-0): 13.6 µM (inactive) | GI50 (PC-3): 16.1 µM (inactive) | GI50 (NCI/ADR-RES): 14 µM (inactive) | GI50 (IGROV-1): 24.2 µM (inactive) | GI50 (SK-MEL-2): 13.7 µM (inactive)

CCCC(CCC)C(=O)O [VALPROIC ACID]
GI50 (KM12): 14300 µM (inactive) | GI50 (RXF 393): 2570 µM (inactive) | GI50 (M14): > 100 µM (inactive) | GI50 (OVCAR-4): 3720 µM (inactive) | GI50 (COLO 205): 4530 µM (inactive) | GI50 (SNB-75): 6150 µM (inactive) | GI50 (OVCAR-3): 12900 µM (inactive) | GI50 (SK-MEL-28): > 100 µM (inactive) | GI50 (NCI-H460): 4310 µM (inactive) | GI50 (CAKI-1): 7480 µM (inactive) | GI50 (ACHN): 5450 µM (inactive) | GI50 (A498): 532 µM (inactive) | GI50 (MDA-MB-435): 10900 µM (inactive) | GI50 (SR): 8510 µM (inactive) | GI50 (MDA-MB-231): 14700 µM (inactive) | GI50 (786-0): > 100 µM (inactive) | GI50 (PC-3): 16900 µM (inactive) | GI50 (NCI/ADR-RES): 10900 µM (inactive) | GI50 (IGROV-1): 5430 µM (inactive) | GI50 (SK-MEL-2): 8000 µM (inactive)
